In patent US10647665B2, “Biaryl urea derivative or salt thereof and preparation process and use for the same” (Fudan University, priority 2016, dated 2020):

What was measured:
[1] = biological target: RORγ receptor (B-RORγ LBD) (Homo sapiens (Human), UniProt P51449); test: Inhibitory activity on RORγ receptor in vitro by fluorescence resonance energy transfer (FRET); type: biochemical; settings: average of at least two independent tests
Protocol: The inhibitory activity of compounds on RORγ receptor was determined by fluorescence resonance energy transfer (FRET) experiments. The inhibitory activity was expressed by half-inhibitory concentration (IC50).
1. Preparation of RORγ Buffer Solution
10 mL of DTT and 100 mL buffer solution were gently mixed together and ready to use.
2. Preparation of Compound Solution
(§1) 3. Preparation of Protein Mixture a. 40 nM B-RORγ LBD solution and 20 nM SA-APC solution were gently mixed together. The reaction mixture was incubated for 15 minutes at room temperature. Then 400 nM Biotin was added to the described above mixture. After gently mixed together, the resulting mixture was incubated for 10 minutes at room temperature. […]
as §1, with “b.” for “3. Preparation of Protein Mixture a.”, “Bioin-SRC1” for “B-RORγ LBD”, “10” for “20”, “SA-eu” for “SA-APC”, “together, and the” for “together. The”, “200” for “400”
d. A mixture of 0.1 μM alternative agonist
N-(2-chloro-6-fluorophenyl)-N-((20-methoxy-[1,10-biphenylyl]-4-substituted)methyl)benzenesulfonamide, 25 μL B-RORγ LBD/SA-APC and Bioin-SRC1/SA-eu mixture solution with test compound were added to one of the well of a 384-well plate, then they were centrifuged for 1 minute at 1000 rpm, and incubated at room temperature for 1 hour. The values were read on the Envision microplate detector and IC50 was calculated.

[2] = tested on: Mouse Th17 cell differentiation; test: Inhibition of mouse Th17 cell differentiation (IL-17 by intracellular staining and flow cytometry); type: cell-based; settings: compound at 0.3 μM, mouse spleen CD4+ T cells, 96 hours
Protocol: Experimental method: Mouse spleen CD4^+ T cells were isolated and differentiated into Th17 cells. CD4^+ T cells were cultured in the environment of anti-CD3 (0.25 μg/mL), anti-CD28 (1 μg/mL), anti-IL4 (2 μg/mL), anti-IFN-γ (2 μg/mL), TGF-β (5 ng/mL), and IL6 (20 ng/mL), and then the test compound was added. After 96 hours, the differentiation efficiency of Th17 was analyzed. Before collection of cells, PMA at 50 ng/mL and ionomycin at 500 ng/mL were added for stimulation for 4 hours, and the ratio of IL-17 was detected by intracellular staining and flow cytometry. At the same time, we used Live/Dead Cell Dye (Invitrogen) staining method to analyze the cell survival rate, to judge whether the drug had toxicity to cells, and determine the inhibition rate of the compound at a concentration of 0.3 μM on IL-17 differentiation by Th 17 cells.

Sequence of RORγ receptor (B-RORγ LBD) (P51449 269-508): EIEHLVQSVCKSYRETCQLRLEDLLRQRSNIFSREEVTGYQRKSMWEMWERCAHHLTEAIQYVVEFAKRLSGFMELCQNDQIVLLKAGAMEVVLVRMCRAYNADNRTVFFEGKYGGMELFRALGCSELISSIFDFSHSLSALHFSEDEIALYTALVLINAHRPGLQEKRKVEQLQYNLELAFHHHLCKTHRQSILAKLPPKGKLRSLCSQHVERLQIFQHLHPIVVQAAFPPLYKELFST

| SMILES | IC50 [1] [nM] | inhibition at 0.3 µM [2] [%] |
| --- | --- | --- |
| CCS(=O)(=O)c1ccc(CNC(=O)Nc2ccc(-c3ccccc3)cc2)cc1 [Example 1-2, 1-([1,1′-biphenyl]-4-yl)-3-(4-(ethylsulfonyl)benzyl)urea] | 5000 to 50000 | 0 to 40 |
| CCS(=O)(=O)c1ccc(CNC(=O)Nc2ccc(-c3ccccc3OC(F)(F)F)c(Cl)c2)cc1 [Example 1-3, 1-(2-chloro-2′-(trifluoromethoxy)-[1,1′-biphenyl]-4-yl)-3-(4-(ethylsulfonyl)benzyl)urea] | 500 to 5000 | 40 to 70 |
| CS(=O)(=O)c1ccc(CNC(=O)Nc2cc(Cl)c(-c3ccccc3OC(F)(F)F)c(Cl)c2)cc1 [Example 1-4, 1-(2,6-dichloro-2′-(trifluoromethoxy)-[1,1′-biphenyl]-4-yl)-3-(4-(methylsulfonyl)benzyl)urea] | < 500 | 40 to 70 |
| CNS(=O)(=O)c1ccc(CNC(=O)Nc2cc(Cl)c(-c3ccccc3OC(F)(F)F)c(Cl)c2)cc1 [Example 1-5, 4-((3-(2,6-dichloro-2′-(trifluoromethoxy)-[1,1′-biphenyl]-4-yl)ureido)methyl)-N-methylbenzenesulfonamide] | < 500 | 70 to 100 |
| NS(=O)(=O)c1ccc(CNC(=O)Nc2cc(Cl)c(-c3ccccc3OC(F)(F)F)c(Cl)c2)cc1 [Example 1-6, 4-((3-(2,6-dichloro-2′-(trifluoromethoxy)-[1,1′-biphenyl]-4-yl)ureido)methyl)benzenesulfonamide] | < 500 | 40 to 70 |
| CC(=O)NS(=O)(=O)c1ccc(CNC(=O)Nc2cc(Cl)c(-c3ccccc3OC(F)(F)F)c(Cl)c2)cc1 [Example 1-7, N-((4-((3-(2,6-dichloro-2′-(trifluoromethoxy)-[1,1′-biphen-1,1′-biphenyl]-4-yl)ureido)methyl)phenyl)sulfonyl)acetamide] | < 500 | 0 to 40 |
| CCS(=N)(=O)c1ccc(CNC(=O)Nc2cc(Cl)c(-c3ccccc3OC(F)(F)F)c(Cl)c2)cc1 (centres unmarked) [Example 1-9, 1-(2,6-dichloro-2′-(trifluoromethoxv)-[1,1′-biphenyl]-4-yl)-3-(4-(ethylsulfonimidoyl)benzyl)urea] | < 500 |  |
| CCS(=O)(=O)c1ccc(CNC(=O)Nc2cc(Cl)c(-c3ccccc3OC(F)(F)F)c(Cl)c2)nc1 [Example 1-11, 1-(2,6-dichloro-2′-(trifluoromethoxy)-[1,1′-biphenyl]-4-yl)-3-((5-(ethylsulfonyl)pyridine-2-yl)methyl)urea] | < 500 |  |
| CS(=O)(=O)c1ccc(CNC(=O)Nc2cc(Cl)c(-c3ccccc3OC(F)(F)F)c(Cl)c2)nc1 [Example 1-12, 1-(2,6-dichloro-2′-(trifluoromethoxy)-[1,1′-biphenyl]-4-yl)-3-((5-(methylsulfonyl)pyridine-2-yl)methyl)urea] | < 500 |  |
| CNS(=O)(=O)c1ccc(CNC(=O)Nc2cc(Cl)c(-c3ccccc3OC(F)(F)F)c(Cl)c2)nc1 [Example 1-13, 6-((3-(2,6-dichloro-2′-(trifluoromethoxy)-[1,1′-biphenyl]-4-yl)ureido)methyl)-N-methylpyridine-3-sulfonamide] | < 500 |  |
| O=C(NCc1ccc(C(=O)O)cc1)Nc1cc(Cl)c(-c2ccccc2OC(F)(F)F)c(Cl)c1 [Example 1-14, 4-((3-(2,6-dichloro-2′-(trifluoromethoxy)-[1,1′-biphenyl]-4-yl)ureido)methyl)benzoic acid] | 500 to 5000 | 0 to 40 |
| O=C(O)Cc1ccc(CNC(=O)Nc2cc(Cl)c(-c3ccccc3OC(F)(F)F)c(Cl)c2)cc1 [Example 1-15, 2-(4-((3-(2,6-dichloro-2′-(trifluoromethoxy)-[1,1′-biphenyl]-4-yl)ureido)methyl)phenyl)acetic acid] |  | 70 to 100 |
| N#Cc1cc(NC(=O)NCc2ccc(CC(=O)O)cc2)cc(Cl)c1-c1ccccc1OC(F)(F)F [Example 1-16, 2-(4-((3-(2-chloro-6-cyano-2′-(trifluoromethoxy)-[1,1′-biphenyl]-4-yl)ureido)methyl)phenyl)acetic acid] | < 500 | 0 to 40 |
| Cc1cc(NC(=O)NCc2ccc(CC(=O)O)cc2)cc(Cl)c1-c1ccccc1OC(F)(F)F [Example 1-17, 2-(4-((3-(2-chloro-6-methyl-2′-(trifluoromethoxy)-[1,1′-biphenyl]-4-yl)ureido)methyl)phenyl)acetic acid] | < 500 | 70 to 100 |
| O=C(O)Cc1ccc(CNC(=O)Nc2ccc(-c3ccccc3OC(F)(F)F)c(Cl)c2)cc1 [Example 1-18, 2-(4-((3-(2-chloro-2′-(trifluoromethoxv)-[1,1′-biphenyl]-4-yl)ureido)methyl)phenyl)acetic acid] | 500 to 5000 | 0 to 40 |
| O=C(O)Cc1ccc(CNC(=O)Nc2cc(F)c(-c3ccccc3OC(F)(F)F)c(F)c2)cc1 [Example 1-19, 2-(4-((3-(2,6-difluoro-2′-(trifluoromethoxy)-[1,1′-biphenyl]-4-yl)ureido)methyl)phenyl)acetic acid] | 500 to 5000 | 0 to 40 |
| CC(C(=O)O)c1ccc(CNC(=O)Nc2cc(Cl)c(-c3ccccc3OC(F)(F)F)c(Cl)c2)cc1 (centres unmarked) [Example 1-24, 2-(4-((3-(2,6-dichloro-2′-(trifluoromethoxy)-[1,1′-biphenyl]-4-yl)ureido)methyl)phenyl)propanoic acid] | 500 to 5000 |  |
| O=C(O)COc1ccc(CNC(=O)Nc2cc(Cl)c(-c3ccccc3OC(F)(F)F)c(Cl)c2)cc1 [Example 1-26, 2-(4-((3-(2,6-dichloro-2′-(trifluoromethoxy)-[1,1′-biphenyl]-4-yl)ureido)methyl)phenoxy)acetic acid] |  | 0 to 40 |
| CN(C(=O)NCc1ccc(CC(=O)O)cc1)c1cc(Cl)c(-c2ccccc2OC(F)(F)F)c(Cl)c1 [Example 1-27, 2-(4-((3-(2,6-dichloro-2′-(trifluoromethoxy)-[1,1′-biphenyl]-4-yl)-3-methylureido)methyl)phenyl)acetic acid] | 500 to 5000 |  |
| CN(Cc1ccc(CC(=O)O)cc1)C(=O)Nc1cc(Cl)c(-c2ccccc2OC(F)(F)F)c(Cl)c1 [Example 1-28, 2-(4-((3-(2,6-dichloro-2′-(trifluoromethoxy)-[1,1′-biphenyl]-4-yl)-1-methylureido)methyl)phenyl)acetic acid] | 500 to 5000 |  |
| CC(C(=O)O)c1ccc(CNC(=O)Nc2cc(Cl)c(-c3ccccc3OC(F)(F)F)c(Cl)c2)nc1 (centres unmarked) [Example 1-30, 2-(6-((3-(2,6-dichloro-2′-(trifluoromethoxy)-[1,1′-biphenyl]-4-yl)ureido)methyl)pyridin-3-yl)propanoic acid] | 500 to 5000 |  |
| Cc1cc(CNC(=O)Nc2cc(Cl)c(-c3ccccc3OC(F)(F)F)c(Cl)c2)ccc1CC(=O)O [Example 1-31, 3-(4-((3-(2,6-dichloro-2′-(trifluoromethoxy)-[1,1′-biphenyl]-4-yl)ureido)methyl)-2-methylphenyl)acetic acid] | 500 to 5000 |  |
| Cc1cc(CC(=O)O)ccc1CNC(=O)Nc1cc(Cl)c(-c2ccccc2OC(F)(F)F)c(Cl)c1 [Example 1-34, 3-(4-((3-(2,6-dichloro-2′-(trifluoromethoxy)-[1,1′-biphenyl]-4-yl)ureido)methyl)-3-methylphenyl)acetic acid] | < 500 |  |
| O=C(O)CCc1ccc(CNC(=O)Nc2cc(Cl)c(-c3ccccc3OC(F)(F)F)c(Cl)c2)cc1 [Example 1-36, 3-(4-((3-(2,6-dichloro-2′-(trifluoromethoxy)-[1,1′-biphenyl]-4-yl)ureido)methyl)phenyl)propanoic acid] | 500 to 5000 |  |
| O=C(NCc1ccc(C(O)C(=O)O)cc1)Nc1cc(Cl)c(-c2ccccc2OC(F)(F)F)c(Cl)c1 (centres unmarked) [Example 1-37, 2-(4-((3-(2,6-dichloro-2′-(trifluoromethoxy)-[1,1′-biphenyl]-4-yl)ureido)methyl)phenyl)-2-hydroxyacetic acid] | < 500 |  |
| O=C(NCc1ccc(C(F)C(=O)O)cc1)Nc1cc(Cl)c(-c2ccccc2OC(F)(F)F)c(Cl)c1 (centres unmarked) [Example 1-38, 2-(4-((3-(2,6-dichloro-2′-(trifluoromethoxy)-[1,1′-biphenyl]-4-yl)ureido)methyl)phenyl)-2-fluoroacetic acid] | < 500 |  |
| CCS(=O)(=O)c1ccc(CNC(=O)Nc2cc(Cl)c(-c3ccccc3OC(F)(F)F)c(Cl)c2)cc1 [Example I-1, 1-(2,6-dichloro-2′-(trifluoromethoxy)-[1,1′-biphenyl]-4-yl)-3-(4-(ethylsulfonyl)benzyl)urea] |  | 70 to 100 |
